Our source for the IC50 values is US20230416261A1, “ETHANEDIAMINE-HETEROCYCLE DERIVATIVES AS INHIBITORS OF PROTEIN ARGININE METHYLTRANSFERASES” (Board of Regents, The University of Texas System, priority 2021, published 2023).

One test deals with PATC53 cells. Description: PATC53 Long Term Phenotypic Assay (14 days, crystal violet viability). The format is cell-based. Conditions: 336 h. The protocol: PATC53 cells were derived from the PATC53 PDX model and kindly provided by Jason Fleming (MDACC). The cells were routinely maintained in DMEM/F12 Medium (Corning, Catalog #10-090-CV) supplemented with 10% fetal bovine serum (Sigma, Catalog #F2442), 100 units/mL penicillin and 100 μg/mL streptomycin (Gibco, Catalog #15140-122) in a humidified incubator (37° C., 5% CO2). Prior to the assay, cells were seeded onto a 12-well, TC treated plate (Corning, catalog #353043) at a density of 250 cells per well in a volume of 1 mL. The plate was incubated for 24 hours at 37° C. and 5% CO2. Stock solutions of the test compounds were prepared in 100% DMSO (Sigma, Catalog #D2650) and serially diluted 1:3 using 100% DMSO. Compounds were additionally diluted 1:100 in culture medium, and 110 μL/well was transferred to the tissue culture plate. Following the compound addition, the plate was incubated at 37° C. and 5% CO2 for 14 days. Viability was then assessed by crystal violet staining (Fisher Scientific, Catalog #C58125) as follows: 450 μL of crystal violet (1 mg/mL) was added to the plate for a 10 minute incubation at room temperature. After incubation, the plate was washed 3× with distilled water to remove excess dye and allowed to dry overnight. The crystal violet was solubilized using 10% HOAc (500 μL) for 10 minutes at room temperature, while shaking. A volume of 100 μL was then transferred to a 96-well SpectraPlate (Perkin Elmer, Catalog #6005649). Absorbance at 590 nm was measured with a BioTek Synergy Neo. IC50 values were calculated using a four-parameter logistic curve fit using Genedata Screener software.

In test [1] the target is T1, PRMT1 (Homo sapiens, UniProt Q99873). Description: PRMT1 RKO Cellular Target Engagement Assay (In-Cell Western, asymmetric di-methyl arginine). The format is cell-based. Particulars: RKO cells, 48 hr compound incubation; read-out: RKO IC50 (PRMT-1 Target Engagement). The protocol:
RKO cells were routinely maintained in EMEM media (ATCC, Catalog #30-2003) supplemented with 10% fetal bovine serum (Sigma, Catalog #F2442) using a humidified incubator (37° C., 5% CO2, and ambient O2).
In preparation for the In-Cell Western assay, cells were harvested and resuspended in EMEM media supplemented with 10% fetal bovine serum. Cells were seeded onto a 384 well, black, clear bottom, Poly-D-Lysine coated tissue culture plate (Greiner, Catalog #781946) at a density of 1,000 cells/well in a volume of 40 μL. The culture plate was incubated for 24 hr at 37° C. with 5% CO2 and ambient O2. Stock solutions of the test compounds were prepared in 100% DMSO (Sigma, Catalog #D2650) and serially diluted 1:3 using 100% DMSO. Compounds were additionally diluted 1:40 in culture medium, and 10 μL/well was transferred to the tissue culture plate. Following the compound addition the microplate was incubated at 37° C. for 48 hr.
The media was removed, the plate was washed with 1× PBS (Fisher Bioreagents, Catalog #BP399-20), and cells were fixed for 10 min using 30 μL/well of 4% paraformaldehyde (Electron Microscopy Sciences, Catalog #15710). The paraformaldehyde was removed, the plate was again washed with 1× PBS, and cells were permeabilized for 15 min using 30 μL/well of 1× PBS containing 0.5% Triton-X 100 (Sigma, Catalog #1001748095). The permeabilization buffer was removed, the plate was washed with 1× PBST (Boston BioProducts, Catalog #IBB-171X), and 50 μL/well of blocking buffer (LI-COR, Catalog #927-40000) was added followed by a 1 hour incubation at room temperature. The blocking buffer was removed, and 20 μL/well of anti-asymmetric di-methyl arginine antibody (Cell Signaling, Catalog #13522S) diluted 1:1000 in LI-COR blocking buffer was added to the plate and incubated overnight, in the dark at 4° C.
The primary antibody was then removed, and the plate was washed three times with 1× PBST. 20 μL/well of CellTag (LI-COR, Catalog #926-41090) and IRDye 800CW goat anti-rabbit IgG antibody (LI-COR, Catalog #926-32211), each diluted 1:500 in LI-COR blocking buffer supplemented with 0.1% Tween-20 (Thermo Scientific, Catalog #85114), were added to the plate. The plate was then incubated in the dark, at room temperature for 1 hour followed by three washes with 1× PBST and one wash with H2O. The IRDye secondary antibody signal (800 channel) and the CellTag signal (700 channel) were measured using a Licor Odyssey Imager, and the 800 channel signal was then normalized to the 700 channel signal. IC50 values were calculated using a four-parameter logistic curve fit using Genedata Screener software.

For test [2], the target named is T1, PRMT1. Description: PRMT1 Enzymatic Assay (LANCE TR-FRET, methylation of histone H4 at Arg3). Particulars: PRMT1 1.5 nM, SAM 1 μM, biotinylated histone H4 (1-21) 25 nM; read-out: PRMT-1 IC50. The arrangement: purchased SignalChem P365-380G. The format is biochemical. The protocol:
In order to measure PRMT1 enzymatic activity the LANCE TR-FRET assay from PerkinElmer was used to follow the methylation of histone H4 at Arg3 using S-adenosyl-L-methionine (SAM) as the methyl group donor.
This enzymatic assay was performed in a 384 well, white, low volume plate (PerkinElmer, Catalog 6008289) with assay buffer consisting of 50 mM Hepes (pH 8) (Teknova, Catalog #H1090), 1 mM TCEP (Sigma, Catalog #C4706), and 0.003% Tween-20 (Thermo, Catalog #85114). Stock solutions of the test compounds were prepared in 100% DMSO (Sigma, Catalog #D2650) and serially diluted 1:3 using 100% DMSO. Compounds were additionally diluted 1:40 in assay buffer, and 2 uL/well were transferred to the assay plate. 4 uL/well (final concentration 1.5 nM) of PRMT1 protein (SignalChem, Catalog #P365-380G) diluted in assay buffer was added to the assay plate followed by a 15 min preincubation at room temperature. 4 uL/well of SAM (Sigma, Catalog #A7007) and biotinylated histone H4 (1-21) (AnaSpec, Catalog #62555) (final concentrations 1 μM and 25 nM, respectively) diluted in assay buffer were then added to the assay plate followed by a 1 hour reaction time. Final concentrations of PRMT1, SAM, and histone H4 (1-21) refer to a […].
Detection of methylated histone H4 (H4R^3me) was achieved by combining LANCE Ultra Europium-anti-H4R^3me antibody (PerkinElmer, Catalog #TRF04-14), LANCE Ultra ULight-anti-streptavidin antibody (PerkinElmer, Catalog #TRF0102), and sinefungin (Sigma, Catalog #S8559) (final concentrations 2 nM, 50 nM, and 100 μM respectively) in 1× LANCE detection buffer (PerkinElmer, Catalog #CR97-100) and adding L/well of the detection solution to the assay plate. Detection reagents were allowed to react for 1 hour at room temperature. Final concentrations in the detection solution refer to a L volume. The europium fluorescence signal and the ULight TR-FRET signal were measured using a BioTek Synergy Neo plate reader: excitation at 330 nm, emission at 620 nm and 665 nm respectively, and the ratio of the two signals (665 nm/620 nm) was used for curve fitting. IC50 values were calculated using a four-parameter logistic curve fit using Genedata Screener software.
A general note: Time-resolved FRET reads energy transfer from a long-lived donor to a nearby acceptor.

For the next test, the system named is DOHH2 cells. Description: DOHH2 Long Term Phenotypic Assay (7 days, Cell Titer-Glo viability). It counts as cell-based. Particulars: Homo sapiens, DOHH-2, 168 h, Cell Titer-Glo 2.0. The protocol:
DOHH2 cells were kindly provided by Michael Green (MDACC). The cells were routinely maintained in RPMI-1640 Medium (ATCC, Catalog #30-2001) supplemented with 10% fetal bovine serum (Sigma, Catalog #F2442), 100 units/mL penicillin and 100 μg/mL streptomycin (Gibco, Catalog #15140-122) in a humidified incubator (37° C., 5% CO2). Cells were seeded onto a white, CulturPlate-384 (Perkin Elmer, catalog #6007680) at a density of 250 cells per well in a volume of 50 μL. Stock solutions of the test compounds were prepared in 100% DMSO (Sigma, Catalog #D2650) and serially diluted 1:3 using 100% DMSO. Compounds were additionally diluted 1:33 in culture medium, and 10 μL/well was transferred to the tissue culture plate. Following the compound addition, the plate was incubated at 37° C. and 5% CO2 for 7 days. Cells were then mixed and a 30 μL volume was removed. Viability was assessed by a 30 μL addition of Cell Titer-Glo 2.0 (Promega, catalog #G9243). The plate was then shaken on an orbital shaker at 300 RPM for 10 minutes at room temperature, in the dark. Luminescence was measured using a PerkinElmer Envision™ plate reader. IC50 values were calculated using a four-parameter logistic curve fit using Genedata Screener software.

Molecules are shown by their SMILES.

T1 sequence (Q99873 whole entry): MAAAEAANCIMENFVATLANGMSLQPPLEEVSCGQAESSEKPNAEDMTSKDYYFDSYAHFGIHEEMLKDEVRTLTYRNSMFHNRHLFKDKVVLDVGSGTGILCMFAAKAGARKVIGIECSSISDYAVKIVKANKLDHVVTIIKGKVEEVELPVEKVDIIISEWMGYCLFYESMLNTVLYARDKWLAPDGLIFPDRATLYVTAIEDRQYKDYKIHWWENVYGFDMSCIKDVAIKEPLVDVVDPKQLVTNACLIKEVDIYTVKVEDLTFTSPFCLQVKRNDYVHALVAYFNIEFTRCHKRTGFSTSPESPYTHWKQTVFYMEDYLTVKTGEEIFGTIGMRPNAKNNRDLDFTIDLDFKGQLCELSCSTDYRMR

As to `CCOCC1(COCC)CCC(c2c(CN(C)CCNC)nn3c2CN(C(=O)CC(F)(F)F)CC3)CC1` [Example 3, 1-(3-(4,4-bis(ethoxymethyl)-cyclohexyl)-2-((methyl(2-(methylamino)ethyl)amino)-methyl)-6,7-dihydropyrazolo-[1,5-a]pyrazin-5(4H)-yl)-3,3,3-trifluoropropan-1-one], the IC50 in the test with PATC53 cells came to 428 nM; on PRMT1 [1], 153 nM; on PRMT1 [2] it was 57 nM.
On to `CNCCN(C)Cc1nn2c(c1C1CCC(COC)(COC)CC1)CN(C(=O)CC(F)(F)F)CC2` [Example 7, 1-(3-(4,4-bis(methoxy-methyl)cyclohexyl)-2-((methyl(2-(methylamino)-ethyl)amino)methyl)-6,7-dihydropyrazolo[1,5-a]-pyrazin-5(4H)-yl)-3,3,3-trifluoropropan-1-one], for which the IC50 was found to be 210 nM with PATC53 cells, 1620 nM at PRMT1 [1] and 32 nM at PRMT1 [2].
On the same counts, the results for `CNCCN(C)Cc1nn2c(c1C1CCC(COC)(COC)CC1)CN(C(=O)C1COC1)CC2` [Example 9, (3-(4,4-bis(methoxymethyl)-cyclohexyl)-2-((methyl(2-(methylamino)ethyl)amino)-methyl)-6,7-dihydropyrazolo-[1,5-a]pyrazin-5(4H)-yl)-(oxetan-3-yl)methanone] are 1300 nM, 1110 nM and 65 nM.
As to `COCC1(COC)CCC(c2c(CN(C)CCN)nn3c2CN(C(=O)CC(F)(F)F)CC3)CC1` [Example 10, 1-(2-(((2-aminoethyl)-(methyl)amino)methyl)-3-(4,4-bis(methoxymethyl)-cyclohexyl)-6,7-dihydro-pyrazolo[1,5-a]pyrazin-5(4H)-yl)-3,3,3-trifluoropropan-1-one], the IC50 with PATC53 cells turned out to be 649 nM; on PRMT1 [1] it was 695 nM; on PRMT1 [2] it was 20 nM.
For the compound `COCC1(COC)CCC(c2c(CN(C)CCN)nn3c2CN(C(=O)C2COC2)CC3)CC1` [Example 12, (2-(((2-aminoethyl)(methyl)-amino)methyl)-3-(4,4-bis-(methoxymethyl)cyclohexyl)-6,7-dihydropyrazolo[1,5-a]-pyrazin-5(4H)-yl)(oxetan-3-yl)methanone], the IC50 with PATC53 cells is 3860 nM; on PRMT1 [2], 23 nM.
As for `CNCCN(C)Cc1nn2c(c1C1CCC(COC)(COC)CC1)CN(C(=O)C1(C)CC1)CC2` [Example 17, (3-(4,4-bis(methoxymethyl)-cyclohexyl)-2-((methyl(2-(methylamino)ethyl)amino)-methyl)-6,7-dihydropyrazolo-[1,5-a]pyrazin-5(4H)-yl)(1-methylcyclopropyl)-methanone], the IC50 with PATC53 cells worked out at 133 nM; at PRMT1 [1], 370 nM; on PRMT1 [2] it was 56 nM.
`CNCCN(C)Cc1nn2c(c1C1CCC(COC)(COC)CC1)CN(C(=O)C13CC(C#N)(C1)C3)CC2` [Example 22, 3-(3-(4,4-bis(methoxy-methyl)cyclohexyl)-2-((methyl(2-(methylamino)-ethyl)amino)methyl)-4,5,6,7-tetrahydropyrazolo[1,5-a]-pyrazine-5-carbonyl)bicyclo[1.1.1] pentane-1-carbonitrile]: the IC50 with PATC53 cells is 447 nM; at PRMT1 [1], 1400 nM; on PRMT1 [2], 72 nM.
Consider `CNCCN(C)Cc1nn2c(c1C1CCC(COC)(COC)CC1)CN(C(=O)C1CCOCC1)CC2` [Example 31, (3-(4,4-bis(methoxymethyl)-cyclohexyl)-2-((methyl(2-(methylamino)ethyl)amino)-methyl)-6,7-dihydropyrazolo-[1,5-a]pyrazin-5(4H)-yl)-(tetrahydro-2H-pyran-4-yl)-methanone], for which the IC50 with PATC53 cells was found to be 595 nM; in the test with DOHH2 cells it was 206 nM; at PRMT1 [2] it was 108 nM.
Regarding `CNCCN(C)Cc1nn2c(c1C1CCC(COC)(COC)CC1)CN(C(=O)C1CCC1(F)F)CC2` (centres unmarked) [Example 81, (3-(4,4-bis(methoxymethyl)-cyclohexyl)-2-((methyl(2-(methylamino)ethyl)amino)-methyl)-6,7-dihydropyrazolo-[1,5-a]pyrazin-5(4H)-yl)(2,2-difluorocyclobutyl)-methanone], the IC50 at PRMT1 [1] was 367 nM; in the test with DOHH2 cells it was 296 nM; on PRMT1 [2], 133 nM.

As usually defined, the IC50 is the concentration that gives 50% inhibition.
